Results reported in patent US12059420B2 (BRISTOL-MYERS SQUIBB COMPANY, priority 2018, dated 2024).
Counter-ions that a name gives are not always drawn.

The compounds below were run against T1, human IDO1 (Homo sapiens, UniProt P14902) (assay: IDO inhibition assay in HEK293 cells stably expressing human IDO1 (kynurenine production, Ehrlich reagent, absorbance 490 nm)). Conditions: 20 hours incubation with compound, 500 nM reference standard = 100% inhibition, read-out: IDO1 HEK Human IC50.
T1 construct: expressed in transfected cells
T1 sequence (P14902 whole entry): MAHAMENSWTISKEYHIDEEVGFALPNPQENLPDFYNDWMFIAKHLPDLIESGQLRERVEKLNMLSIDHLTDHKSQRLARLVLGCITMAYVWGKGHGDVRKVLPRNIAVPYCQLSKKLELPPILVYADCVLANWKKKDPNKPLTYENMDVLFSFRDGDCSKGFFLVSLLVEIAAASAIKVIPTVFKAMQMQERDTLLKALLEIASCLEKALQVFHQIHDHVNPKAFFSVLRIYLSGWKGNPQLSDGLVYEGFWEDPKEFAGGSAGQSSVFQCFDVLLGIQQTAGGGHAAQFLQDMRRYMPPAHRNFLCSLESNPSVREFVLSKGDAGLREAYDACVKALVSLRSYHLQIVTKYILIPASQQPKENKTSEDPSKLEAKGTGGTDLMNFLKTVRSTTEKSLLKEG
Format: cell-based
Summary of the method: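 HEK293 clones stably expressing human IDO1 (10,000 cells/well, phenol red-free RPMI, 10% FBS) were treated with compound for 20 hours at 37° C. After 0.2% TCA and 30 min at 50° C., kynurenine was read with Ehrlich reagent at 490 nm. IC50 was normalised to DMSO (0%) and 500 nM reference standard (100%).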

Question: With CCCN(Cc1ccccc1)c1cc(NC(=O)Nc2ccc3c(c2)OCO3)cc(-c2ccccc2-c2nnn[nH]2)n1 [Example 288, 1-(2-(2-(1H-Tetrazol-5-yl)phenyl)-6-(benzyl(propyl)amino)pyridin-4-yl)-3-(benzo[d][1,3]dioxol-5-yl)urea] as the compound, how does the IC50 read?
Answer: 0.155 µM

Question: For CC(C)CN(Cc1ccccc1)c1cc(NC(=O)Cc2ccc(OC(F)(F)F)cc2)cc(-c2ccccc2-c2nnn[nH]2)n1 [Example 235, N-(2-(2-(1H-tetrazol-5-yl)phenyl)-6-(benzyl(isobutyl)amino)pyridin-4-yl)-2-(4-(trifluoromethoxy)phenyl)acetamide], which IC50 is on record?
Answer: 0.4 µM

Question: CC(C)CN(CC(C)C)c1cc(NC(=O)Nc2ccccc2F)cc(-c2ccccc2-c2nnn[nH]2)n1 [Example 253, 1-(2-(2-(1H-tetrazol-5-yl)phenyl)-6-(diisobutylamino)pyridin-4-yl)-3-(2-fluorophenyl)urea] was tested. Which IC50 did it give?
Answer: 0.972 µM

Question: CCCN(Cc1ccccc1)c1cc(NC(=O)Nc2ccc(C)nc2)cc(-c2ccccc2-c2nnn[nH]2)n1 [Example 267, 1-(2-(2-(1H-tetrazol-5-yl)phenyl)-6-(benzyl(propyl)amino)pyridin-4-yl)-3-(6-methylpyridin-3-yl)urea] was tested. Which IC50 did it give?
Answer: 1.36 µM

Question: With CCCN(Cc1ccccc1)c1cc(NC(=O)Nc2ccc(C(F)(F)F)cc2F)cc(-c2ccccc2-c2nnn[nH]2)n1 [Example 265, 1-(2-(2-(1H-tetrazol-5-yl)phenyl)-6-(benzyl(propyl)amino)pyridin-4-yl)-3-(2-fluoro-4-(trifluoromethyl)phenyl)urea] as the compound, how does the IC50 read?
Answer: 0.0433 µM

Question: Which IC50 does the source give for CC(C)CN(Cc1ccccc1)c1cc(Nc2ncc(C(F)(F)F)cn2)cc(-c2ccccc2-c2nnn[nH]2)n1 [Example 74, 6-(2-(1H-tetrazol-5-yl)phenyl)-N2-benzyl-N2-isobutyl-N4-(5-(trifluoromethyl)pyrimidin-2-yl)pyridine-2,4-diamine, TFA] here?
Answer: 0.0756 µM

Question: How did the IC50 turn out when CCCN(Cc1ccccc1)c1cc(Nc2nnc(C)s2)cc(-c2ccccc2-c2nnn[nH]2)n1 [Example 60, 6-(2-(1H-tetrazol-5-yl)phenyl)-N2-benzyl-N4-(5-methyl-1,3,4-thiadiazol-2-yl)-N2-propylpyridine-2,4-diamine] was run?
Answer: 0.831 µM

Question: Which IC50 does the source give for CCN(Cc1ccccc1)c1nc(NC(=O)Cc2ccc(C)cc2)cc(-c2ccccc2-c2nnn[nH]2)n1 [Example 7, N-(6-(2-(1H-tetrazol-5-yl)phenyl)-2-(benzyl(ethyl)amino)pyrimidin-4-yl)-2-(p-tolyl)acetamide] here?
Answer: 0.089 µM

Question: How did the IC50 turn out when COc1ccc(Nc2cc(-c3ccccc3-c3nnn[nH]3)nc(N(Cc3ccccc3)CC(C)C)c2)cc1C(N)=O [Example 198, 5-((2-(2-(1H-tetrazol-5-yl)phenyl)-6-(benzyl(isobutyl)amino)pyridin-4-yl)amino)-2-methoxybenzamide] was run?
Answer: 2.96 µM

Question: With Cc1nccc(Nc2cc(-c3ccccc3-c3nnn[nH]3)nc(N(Cc3ccccc3)CC(C)C)c2)n1 [Example 140, 6-(2-(1H-tetrazol-5-yl)phenyl)-N2-benzyl-N2-isobutyl-N4-(2-methylpyrimidin-4-yl)pyridine-2,4-diamine] as the compound, how does the IC50 read?
Answer: 0.142 µM

Question: With CC(C)CN(Cc1ccccc1)c1cc(Nc2cccc(C(F)F)n2)cc(-c2ccccc2-c2nnn[nH]2)n1 [Example 195, 6-(2-(1H-tetrazol-5-yl)phenyl)-N2-benzyl-N4-(6-(difluoromethyl)pyridin-2-yl)-N2-isobutylpyridine-2,4-diamine] as the compound, how does the IC50 read?
Answer: 0.0198 µM

Question: CC(C)CN(Cc1ccccc1)c1cc(Nc2ccncc2F)cc(-c2ccccc2-c2nnn[nH]2)n1 [Example 139, 6-(2-(1H-tetrazol-5-yl)phenyl)-N2-benzyl-N4-(3-fluoropyridin-4-yl)-N2-isobutylpyridine-2,4-diamine] was tested. Which IC50 did it give?
Answer: 0.0234 µM

Question: Cc1ccc(Nc2cc(-c3ccccc3-c3nnn[nH]3)nc(N(Cc3ccccc3)CC(C)C)c2)c(F)c1 [Example 147, 6-(2-(1H-tetrazol-5-yl)phenyl)-N2-benzyl-N4-(2-fluoro-4-methylphenyl)-N2-isobutylpyridine-2,4-diamine] was tested. Which IC50 did it give?
Answer: 0.0073 µM

Question: Cc1ccc(CC(=O)Nc2cc(-c3ccccc3-c3nnn[nH]3)nc(N3CCCC3C)c2)cc1 (centres unmarked) [Example 128, N-(2-(2-(1H-tetrazol-5-yl)phenyl)-6-(2-methylpyrrolidin-1-yl)pyridin-4-yl)-2-(p-tolyl)acetamide] was tested. Which IC50 did it give?
Answer: 1.8 µM

Question: How did the IC50 turn out when Cc1ccc(CC(=O)Nc2cc(-c3ccccc3-c3nnn[nH]3)nc(N3CCN(Cc4ccccc4)C(=O)C3)n2)cc1 [Example 97, N-(6-(2-(1H-tetrazol-5-yl)phenyl)-2-(4-benzyl-3-oxopiperazin-1-yl)pyrimidin-4-yl)-2-(p-tolyl)acetamide] was run?
Answer: 1.15 µM

Question: CCCN(Cc1ccccc1)c1cc(NC(=O)Nc2ccc(C(F)(F)F)cc2)cc(-c2ccccc2-c2nnn[nH]2)n1 [Example 289, 1-(2-(2-(1H-Tetrazol-5-yl)phenyl)-6-(benzyl(propyl)amino)pyridin-4-yl)-3-(4-(trifluoromethyl)phenyl)urea] was tested. Which IC50 did it give?
Answer: 0.0412 µM

Question: For CC(C)CN(Cc1ccccc1)c1cc(Nc2ncnc3[nH]ccc23)cc(-c2ccccc2-c2nnn[nH]2)n1 [Example 173, 6-(2-(1H-tetrazol-5-yl)phenyl)-N2-benzyl-N2-isobutyl-N4-(7H-pyrrolo[2,3-d]pyrimidin-4-yl)pyridine-2,4-diamine], which IC50 is on record?
Answer: 0.259 µM

Question: Cc1ccnc(Nc2cc(-c3ccccc3-c3nnn[nH]3)nc(N(Cc3ccccc3)CC(C)C)c2)n1 [Example 145, 6-(2-(1H-tetrazol-5-yl)phenyl)-N2-benzyl-N2-isobutyl-N4-(4-methylpyrimidin-2-yl)pyridine-2,4-diamine] was tested. Which IC50 did it give?
Answer: 0.0736 µM

Question: CCCN(CC1CC1)c1cc(NC(=O)Cc2ccc(C)cc2F)cc(-c2ccccc2-c2nnn[nH]2)n1 [Example 82, N-(2-(2-(1H-tetrazol-5-yl)phenyl)-6-((cyclopropylmethyl)(propyl)amino)pyridin-4)-2-(2-fluoro-4-methylphenyl)acetamide, TFA] was tested. Which IC50 did it give?
Answer: 0.731 µM

Question: CCCN(Cc1ccccc1)c1cc(NC(=O)Cn2ccnc2)cc(-c2ccccc2-c2nn[nH]n2)n1 [Example 222, N-(2-(2-(2H-tetrazol-5-yl)phenyl)-6-(benzyl(propyl)amino)pyridin-4-yl)-2-(1H-imidazol-1-yl)acetamide] was tested. Which IC50 did it give?
Answer: 3.43 µM

Question: Which IC50 does the source give for CC(C)CN(Cc1ccccc1)c1cc(NC(=O)Nc2ccc(OC(F)(F)F)cc2)cc(-c2ccccc2-c2nnn[nH]2)n1 [Example 239, 1-(2-(2-(1H-tetrazol-5-yl)phenyl)-6-(benzyl(isobutyl)amino)pyridin-4-yl)-3-(4-(trifluoromethoxy)phenyl)urea] here?
Answer: 0.566 µM

Question: Which IC50 does the source give for CCCN(Cc1ccccc1)c1cc(NC(=O)Cc2ccc(C)cc2)cc(-c2ccccc2C(=O)NS(C)(=O)=O)n1 [Example 21, 2-(6-(benzyl(propyl)amino)-4-(2-(p-tolyl)acetamido)pyridin-2-yl)-N-(methylsulfonyl)benzamide] here?
Answer: 0.328 µM

Question: CCCc1cnc(Nc2cc(-c3ccccc3-c3nnn[nH]3)nc(N(Cc3ccccc3)CC(C)C)c2)nc1 [Example 149, 6-(2-(1H-tetrazol-5-yl)phenyl)-N2-benzyl-N2-isobutyl-N4-(5-propylpyrimidin-2-yl)pyridine-2,4-diamine] was tested. Which IC50 did it give?
Answer: 0.0176 µM

Question: For Cc1ccc(CC(=O)Nc2cc(-c3ccccc3-c3nnn[nH]3)nc(N3CCc4ccccc4C3)c2)cc1 [Example 132, N-(2-(2-(1H-tetrazol-5-yl)phenyl)-6-(3,4-dihydroisoquinolin-2(1H)-yl)pyridin-4-yl)-2-(p-tolyl)acetamide], which IC50 is on record?
Answer: 0.52 µM

Question: With Cc1ccc(CC(=O)Nc2cc(-c3ccccc3-c3nnn[nH]3)nc(N(CC(C)C)C3CCOCC3)c2)cc1 [Example 77, N-(2-(2-(1H-tetrazol-5-yl)phenyl)-6-(isobutyl(tetrahydro-2H-pyran-4-yl)amino)pyridin-4-yl)-2-(p-tolyl)acetamide, TFA] as the compound, how does the IC50 read?
Answer: 2.09 µM

Question: For CC(C)CN(Cc1ccccc1)c1nc(Nc2nc3ccccc3o2)cc(-c2ccccc2-c2nnn[nH]2)n1 [Example 102, 6-(2-(1H-tetrazol-5-yl)phenyl)-N4-(benzo [d]oxazol-2-yl)-N2-benzyl-N2-isobutylpyrimidine-2,4-diamine], which IC50 is on record?
Answer: 0.0086 µM

Question: With CCCN(Cc1ccccc1)c1cc(NC(=O)Nc2ccc(C)cc2)cc(-c2ccccc2S(=O)(=O)NC(C)=O)n1 [Example 35, N-((2-(6-(benzyl (propyl)amino)-4-(3-(p-tolyl)ureido)pyridin-2-yl)phenyl)sulfonyl) acetamide] as the compound, how does the IC50 read?
Answer: 0.256 µM

Question: Cc1ccc(CC(=O)Nc2cc(-c3ccccc3-c3nnn[nH]3)nc(N(Cc3ccccc3)CC(C)C)c2)c(F)c1 [Example 79, N-(2-(2-(1H-tetrazol-5-yl)phenyl)-6-(benzyl(isobutyl)amino)pyridin-4-yl)-2-(2-fluoro-4-methylphenyl)acetamide, TFA] was tested. Which IC50 did it give?
Answer: 0.0183 µM

Question: How did the IC50 turn out when CC(C)CN(Cc1ccccc1)c1cc(Nc2cccc(OC(F)(F)F)c2)cc(-c2ccccc2-c2nnn[nH]2)n1 [Example 193, 6-(2-(1H-tetrazol-5-yl)phenyl)-N2-benzyl-N2-isobutyl-N4-(3-(trifluoromethoxy)phenyl)pyridine-2,4-diamine] was run?
Answer: 0.0141 µM

Question: For Cc1ccc(Nc2cc(-c3ccccc3-c3nnn[nH]3)nc(N(Cc3ccccc3)CC(C)C)c2)c(C#N)c1 [Example 187, 2-((2-(2-(1H-tetrazol-5-yl)phenyl)-6-(benzyl(isobutyl)amino)pyridin-4-yl)amino)-5-methylbenzonitrile], which IC50 is on record?
Answer: 0.101 µM

Question: For CC(C)CN(Cc1ccc(F)cc1)c1cc(Nc2cccc(C(F)F)n2)cc(-c2ccccc2-c2nnn[nH]2)n1 [Example 47, 6-(2-(1H-tetrazol-5-y1)phenyl)-N4-(6-(difluoromethyl)pyridin-2-yl)-N2-(4-fluorobenzyl)-N2-isobutylpyridine-2,4-diamine], which IC50 is on record?
Answer: 0.0172 µM

Question: For Cc1ccc(Nc2cc(-c3ccccc3-c3nnn[nH]3)nc(N(Cc3ccc(F)cc3)CC(C)C)c2)nn1 [Example 41, 6-(2-(1H-tetrazol-5-yl)phenyl)-N2-(4-fluorobenzyl)-N2-isobutyl-N4-(6-methylpyridazin-3-yl)pyridine-2,4-diamine, TFA], which IC50 is on record?
Answer: 0.563 µM
